Data as given in PubChem BioAssay (NCI).
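A five-concentration, 48-hour dose response in 96-well plates underlies each endpoint, interpolated linearly between surrounding concentrations. TGI is the concentration that stops growth completely.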

Experiments:
Assay in all cases: NCI tumour cell line growth inhibition, 48 h
BT-549 breast = tested on: BT-549 breast
COLO 205 colon = tested on: COLO 205 colon
HCC-2998 colon = tested on: HCC-2998 colon
HOP-62 NSCLC = tested on: HOP-62 NSCLC
HOP-92 NSCLC = tested on: HOP-92 NSCLC
LOX IMVI melanoma = tested on: LOX IMVI melanoma
MCF7 breast = tested on: MCF7 breast
MDA-MB-231 breast = tested on: MDA-MB-231 breast
OVCAR-5 ovarian = tested on: OVCAR-5 ovarian
SK-MEL-2 melanoma = tested on: SK-MEL-2 melanoma
SK-OV-3 ovarian = tested on: SK-OV-3 ovarian
SNB-75 CNS = tested on: SNB-75 CNS
SW-620 colon = tested on: SW-620 colon
U251 CNS = tested on: U251 CNS
A549 NSCLC = tested on: A549 NSCLC
CAKI-1 renal = tested on: CAKI-1 renal
NCI-H226 lung = tested on: NCI-H226 lung
NCI-H23 lung = tested on: NCI-H23 lung
NCI/ADR-RES ovarian = tested on: NCI/ADR-RES ovarian

Compound	TGI (BT-549 breast)	TGI (COLO 205 colon)	TGI (HCC-2998 colon)	TGI (HOP-62 NSCLC)	TGI (HOP-92 NSCLC)	TGI (LOX IMVI melanoma)	TGI (MCF7 breast)	TGI (MDA-MB-231 breast)	TGI (OVCAR-5 ovarian)	TGI (SK-MEL-2 melanoma)	TGI (SK-OV-3 ovarian)	TGI (SNB-75 CNS)	TGI (SW-620 colon)	TGI (U251 CNS)	TGI (A549 NSCLC)	TGI (CAKI-1 renal)	TGI (NCI-H226 lung)	TGI (NCI-H23 lung)	TGI (NCI/ADR-RES ovarian)
CCCCCCCN1C(=O)C(O)(c2ccc(C3(O)C(=O)N(CCCCCCC)c4ccccc43)s2)c2ccccc21 (stereo not given)	4.12 µM	3.21 µM	3.44 µM	3.41 µM	3.55 µM	3.51 µM	5.7 µM	4.12 µM	3.24 µM	2.93 µM	2.2 µM	17.3 µM	4.55 µM	3.17 µM					
CCOC(=O)/C=C1\c2ccccc2C(=O)N1CC(=O)OCC	> 100 µM	> 100 µM		> 100 µM	> 100 µM	> 100 µM		> 100 µM	> 100 µM	> 100 µM	> 100 µM	> 100 µM	> 100 µM	> 100 µM	> 100 µM	> 100 µM	> 100 µM	> 100 µM	> 100 µM
COC(=O)c1ccccc1/C=C1\Cc2cc(C)c(C)cc2C1=O	> 100 µM	> 100 µM	> 100 µM	85.8 µM	59.2 µM	> 100 µM	> 100 µM		> 100 µM	68.3 µM		81.3 µM	> 100 µM	96.8 µM	> 100 µM	> 100 µM	> 100 µM		> 100 µM
OC1CN2Cc3cc4c(cc3[C@]13C=C[C@@H](O)CC23)OCO4 (stereo not given in full)	> 100 µM	> 100 µM		> 100 µM	86.8 µM	> 100 µM	> 100 µM	> 100 µM	> 100 µM	> 100 µM	> 100 µM		> 100 µM	> 100 µM	> 100 µM	> 100 µM	> 100 µM	> 100 µM	> 100 µM
C=CC(C)CCC(C/C=C(\C)CCC=C(C)C)C(=C)CCCC(C)C (stereo not given)	> 100 µM	> 100 µM	> 100 µM	> 100 µM	> 100 µM	> 100 µM	> 100 µM	> 100 µM	> 100 µM	> 100 µM	> 100 µM	> 100 µM	> 100 µM	> 100 µM	> 100 µM	> 100 µM		> 100 µM	> 100 µM
Cc1c(C)c(S(=O)(=O)N(CCCN)OCCCN)c(C)c2c1OC(C)(C)C2	> 100 µM	32.5 µM	40.9 µM	> 100 µM		34.9 µM	38.4 µM	33.3 µM	61.6 µM	26.7 µM	> 100 µM	59.5 µM	59.8 µM	38.3 µM	> 100 µM	> 100 µM	> 100 µM	> 100 µM	> 100 µM
COc1cc(/C=C/c2cc(/C=C/c3ccc(O)c(OC)c3)oc(=O)c2)ccc1O	12.2 µM	> 73.2 µM		27.2 µM	32.6 µM	15.7 µM	> 100 µM	> 96.2 µM	> 100 µM	> 65.9 µM	> 65.2 µM	4.61 µM	> 24.5 µM	> 51.8 µM	> 100 µM	16.1 µM	61.1 µM	> 24.7 µM	26.1 µM
O=C(Nc1ccccc1F)c1cc2ccc(O)cc2oc1=Nc1cccc(C(F)(F)F)c1	8.42 µM	33 µM	> 100 µM	53.7 µM		6.52 µM	> 100 µM		> 100 µM	36 µM	35.2 µM		> 100 µM	19.3 µM	> 100 µM	19.7 µM		4.44 µM	9.93 µM
CN1CCC23c4c5ccc(O)c4OC2c2[nH]c4ccccc4c2CC3(O)C1C5 (stereo not given)	> 100 µM	33.1 µM	32 µM	> 100 µM	40.5 µM	54.7 µM	> 100 µM	86.5 µM	> 100 µM	39.9 µM	> 100 µM	> 100 µM	> 100 µM	52.9 µM	> 100 µM	> 100 µM		> 100 µM	> 100 µM
CCOC(=O)c1cnc(-n2[nH]c3c(c2=O)CCCC3)[nH]c1=O	> 100 µM	> 100 µM			57.6 µM			> 100 µM	> 100 µM	> 100 µM	> 100 µM		> 100 µM	> 100 µM	> 100 µM	> 100 µM	> 100 µM	> 100 µM	> 100 µM
Cc1ccc(S(=O)(=O)Oc2nc3ccccc3nc2N(S(=O)(=O)c2ccc(C)cc2)S(=O)(=O)c2ccc(C)cc2)cc1	> 100 µM	> 100 µM	> 100 µM			> 100 µM	> 100 µM	> 100 µM	> 100 µM	> 100 µM	> 100 µM	> 100 µM	> 100 µM	> 100 µM	> 100 µM	> 100 µM	> 100 µM	> 100 µM	> 100 µM
Cc1ccc(S(=O)(=O)N2CCCC2C(=O)O[C@H]2CC[C@H]3CC=C[C@H]32)cc1 (stereo not given in full)	> 100 µM		> 100 µM	> 100 µM		> 100 µM	78.8 µM	> 100 µM	> 100 µM		> 100 µM	> 100 µM	> 100 µM	> 100 µM	> 31.6 µM	> 100 µM	> 100 µM	> 100 µM	77.2 µM
COc1ccc2c(c1)CCC1=CC3(CCC12C)SCCS3 (stereo not given)	> 10 µM	> 10 µM	> 10 µM	> 10 µM	> 10 µM	> 10 µM	> 10 µM	> 10 µM			> 10 µM	> 10 µM	> 10 µM	> 10 µM	> 10 µM	> 10 µM		> 10 µM	> 10 µM
Clc1nc2n(c1/C=C/c1cccs1)CCS2	90.4 µM	> 100 µM	> 100 µM	> 100 µM			> 100 µM	48.8 µM	> 100 µM	> 100 µM	95.8 µM	> 100 µM	> 100 µM	> 100 µM	> 100 µM	55.2 µM	> 100 µM	> 100 µM	> 100 µM
O=C(CCN1CCOCC1)Nc1ccc2sc3ccccc3c(=O)c2n1	> 100 µM	> 100 µM	> 100 µM	> 100 µM	> 100 µM	> 100 µM	> 100 µM	> 100 µM	> 100 µM	> 100 µM	> 100 µM	85.1 µM	> 100 µM	> 100 µM	> 100 µM	63.8 µM		> 100 µM	> 100 µM
C=C(Cl)C(=C)CCC(Cl)C(C)C (stereo not given)	> 100 µM	> 100 µM	> 100 µM	> 100 µM	> 100 µM	> 100 µM	> 100 µM	> 100 µM	> 100 µM	> 100 µM	> 100 µM		> 100 µM	> 100 µM	> 100 µM	> 100 µM	> 100 µM	> 100 µM	> 100 µM
Cc1ccc(S(=O)(=O)NC(=O)Nc2ccc(S(N)(=O)=O)cc2S(N)(=O)=O)cc1	> 100 µM	> 100 µM		> 100 µM	> 100 µM	> 100 µM	> 100 µM	> 100 µM	> 100 µM	> 100 µM	> 100 µM	> 100 µM	> 100 µM	> 100 µM	> 100 µM	> 100 µM	> 100 µM	> 100 µM	> 100 µM
CC1(C)CC(=O)c2c(nc(SSc3nc4c(c(-c5ccccc5)c3C#N)C(=O)CC(C)(C)C4)c(C#N)c2-c2ccccc2)C1	> 10 µM	> 10 µM	> 10 µM	> 10 µM	> 10 µM	> 10 µM	> 10 µM		> 10 µM	> 10 µM	> 10 µM	> 10 µM	> 10 µM	> 10 µM	> 10 µM	> 10 µM	> 10 µM	> 10 µM	> 10 µM
O=C(c1ccc(Br)cc1)n1c2ccc(Br)cc2c2nc3ccccc3nc21	> 100 µM	> 100 µM	> 100 µM	> 100 µM	> 100 µM	> 100 µM	> 100 µM		> 100 µM	> 100 µM		> 100 µM	> 100 µM	> 100 µM		> 100 µM	> 100 µM	> 100 µM	> 100 µM
Cc1cc(OCC(=O)N/N=C/C(Br)=C/c2ccccc2)nc(SCC(=O)N/N=C/C(Br)=C/c2ccccc2)n1	> 100 µM	> 100 µM	82.9 µM	> 100 µM	86.4 µM	> 100 µM	> 100 µM		> 100 µM				> 100 µM	> 100 µM		> 100 µM		> 100 µM	> 100 µM
C=CCNC1=C2C[C@@H](C)C[C@@H](OC)[C@H](OC(=O)CN)[C@H](C)/C=C(\C)[C@@H](OC(N)=O)[C@H](OC)/C=C\C=C(/C)C(=O)NC(=CC1=O)C2=O	28.3 µM	5.23 µM	1.29 µM	19.9 µM	8.71 µM	6.45 µM	12.8 µM	15.6 µM	25 µM	18.7 µM	12.5 µM	9.59 µM	> 100 µM	29.1 µM	21 µM	18.1 µM		21.3 µM	> 100 µM
